Test results published in PubChem BioAssay (NCI).
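Values below derive from 48-hour exposures of cells grown in 96-well plates, with endpoints linearly interpolated between the two concentrations bracketing the appropriate inhibition level. TGI denotes the concentration required for complete inhibition of growth.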

Assays:
Assay in all cases: NCI anticancer screen, dose series, 48 h
[1] = test system: 786-0 renal
[2] = test system: A498 renal
[3] = test system: A549 NSCLC
[4] = test system: ACHN renal
[5] = test system: BT-549 breast
[6] = test system: CAKI-1 renal
[7] = test system: CCRF-CEM leukemia
[8] = test system: COLO 205 colon
[9] = test system: DU-145 prostate
[10] = test system: EKVX NSCLC
[11] = test system: HCC-2998 colon
[12] = test system: HCT-116 colon
[13] = test system: HCT-15 colon
[14] = test system: HL-60(TB) leukemia
[15] = test system: HOP-62 NSCLC
[16] = test system: HOP-92 NSCLC
[17] = test system: HS 578T breast
[18] = test system: HT29 colon
[19] = test system: IGROV1 ovarian
[20] = test system: K-562 leukemia
[21] = test system: KM12 colon
[22] = test system: LOX IMVI melanoma
[23] = test system: M14 melanoma
[24] = test system: MALME-3M melanoma
[25] = test system: MCF7 breast
[26] = test system: MDA-MB-231 breast
[27] = test system: MDA-MB-435
[28] = test system: MDA-N
[29] = test system: MOLT-4 leukemia
[30] = test system: NCI-H226 lung
[31] = test system: NCI-H23 lung
[32] = test system: NCI-H460 lung
[33] = test system: NCI-H522 lung
[34] = test system: NCI/ADR-RES ovarian
[35] = test system: OVCAR-3 ovarian
[36] = test system: OVCAR-4 ovarian
[37] = test system: OVCAR-5 ovarian
[38] = test system: OVCAR-8 ovarian
[39] = test system: PC-3 prostate
[40] = test system: RPMI-8226 leukemia
[41] = test system: RXF 393 renal
[42] = test system: SF-268 CNS
[43] = test system: SF-295 CNS
[44] = test system: SF-539 CNS
[45] = test system: SK-MEL-2 melanoma
[46] = test system: SK-MEL-28 melanoma
[47] = test system: SK-MEL-5 melanoma
[48] = test system: SK-OV-3 ovarian
[49] = test system: SN12C renal
[50] = test system: SNB-19 CNS
[51] = test system: SNB-75 CNS
[52] = test system: SR leukemia
[53] = test system: SW-620 colon
[54] = test system: T-47D breast
[55] = test system: TK-10 renal
[56] = test system: U251 CNS
[57] = test system: UACC-257 melanoma
[58] = test system: UACC-62 melanoma
[59] = test system: UO-31 renal
[60] = test system: DLD-1 colon
[61] = test system: DMS 114 small cell lung
[62] = test system: KM20L2 colon
[63] = test system: LXFL 529 NSCLC
[64] = test system: M19-MEL melanoma
[65] = test system: SNB-78 CNS
[66] = test system: XF 498 CNS

Question: For `CCN(CC)c1ccc(/C=C/C2=NN(c3cccc(S(=O)(=O)O)c3)C3(C2)C(Cl)C(=O)N3c2nc3ccccc3s2)cc1` (stereo not given), which TGI [1] is on record?
Answer: Its TGI is 15.9 µM.

Question: And the TGI [2]?
Answer: Its TGI is 24.8 µM.

Question: What about the TGI [3] of the same molecule?
Answer: Its TGI is 28.7 µM.

Question: And the TGI [4]?
Answer: The TGI was 23.8 µM.

Question: And the TGI [5]?
Answer: The TGI was 22.7 µM.

Question: And the TGI [6]?
Answer: The TGI was 8.26 µM.

Question: What about the TGI [7] of the same molecule?
Answer: The TGI was 4.47 µM.

Question: And the TGI [8]?
Answer: Its TGI is 31.8 µM.

Question: What about the TGI [9] of the same molecule?
Answer: Its TGI is 25.2 µM.

Question: What about the TGI [10] of the same molecule?
Answer: The TGI was 39.2 µM.

Question: What about the TGI [11] of the same molecule?
Answer: Its TGI is 21.4 µM.

Question: And the TGI [12]?
Answer: The TGI was 24.1 µM.

Question: What about the TGI [13] of the same molecule?
Answer: Its TGI is 24.1 µM.

Question: What about the TGI [14] of the same molecule?
Answer: The TGI was 4.01 µM.

Question: And the TGI [15]?
Answer: Its TGI is 22.9 µM.

Question: What about the TGI [16] of the same molecule?
Answer: The TGI was 15.3 µM.

Question: And the TGI [17]?
Answer: The TGI was greater than 90.2 µM.

Question: And the TGI [18]?
Answer: Its TGI is 33.9 µM.

Question: And the TGI [19]?
Answer: The TGI was 17 µM.

Question: And the TGI [20]?
Answer: Its TGI is 49.8 µM.

Question: And the TGI [21]?
Answer: Its TGI is 20.9 µM.

Question: What about the TGI [22] of the same molecule?
Answer: Its TGI is 9.12 µM.

Question: What about the TGI [23] of the same molecule?
Answer: The TGI was 28.1 µM.

Question: What about the TGI [24] of the same molecule?
Answer: Its TGI is 24.9 µM.

Question: What about the TGI [25] of the same molecule?
Answer: The TGI was 21.1 µM.

Question: What about the TGI [26] of the same molecule?
Answer: Its TGI is 27 µM.

Question: What about the TGI [27] of the same molecule?
Answer: Its TGI is 17 µM.

Question: What about the TGI [28] of the same molecule?
Answer: Its TGI is 30 µM.

Question: And the TGI [29]?
Answer: The TGI was 13.9 µM.

Question: And the TGI [30]?
Answer: Its TGI is 34.2 µM.

Question: And the TGI [31]?
Answer: The TGI was 22.8 µM.

Question: What about the TGI [32] of the same molecule?
Answer: Its TGI is 25.8 µM.

Question: And the TGI [33]?
Answer: Its TGI is 3.57 µM.

Question: And the TGI [34]?
Answer: The TGI was greater than 79.3 µM.

Question: What about the TGI [35] of the same molecule?
Answer: Its TGI is 17.4 µM.

Question: And the TGI [36]?
Answer: The TGI was 9.83 µM.

Question: What about the TGI [37] of the same molecule?
Answer: Its TGI is 58.7 µM.

Question: And the TGI [38]?
Answer: The TGI was 31.4 µM.

Question: What about the TGI [39] of the same molecule?
Answer: The TGI was 25.1 µM.

Question: What about the TGI [40] of the same molecule?
Answer: The TGI was 6.89 µM.

Question: And the TGI [41]?
Answer: Its TGI is 21.1 µM.

Question: What about the TGI [42] of the same molecule?
Answer: The TGI was 41.5 µM.

Question: What about the TGI [43] of the same molecule?
Answer: Its TGI is 27.7 µM.

Question: And the TGI [44]?
Answer: Its TGI is 10.6 µM.

Question: What about the TGI [45] of the same molecule?
Answer: Its TGI is 29.3 µM.

Question: What about the TGI [46] of the same molecule?
Answer: Its TGI is 63 µM.

Question: What about the TGI [47] of the same molecule?
Answer: The TGI was 20.9 µM.

Question: And the TGI [48]?
Answer: Its TGI is 39.3 µM.

Question: And the TGI [49]?
Answer: Its TGI is 29 µM.

Question: What about the TGI [50] of the same molecule?
Answer: The TGI was 29.7 µM.

Question: And the TGI [51]?
Answer: The TGI was 25.3 µM.

Question: And the TGI [52]?
Answer: The TGI was 7.41 µM.

Question: And the TGI [53]?
Answer: Its TGI is 53.4 µM.

Question: And the TGI [54]?
Answer: Its TGI is 12.9 µM.

Question: What about the TGI [55] of the same molecule?
Answer: Its TGI is 14.3 µM.

Question: And the TGI [56]?
Answer: The TGI was 15.5 µM.

Question: What about the TGI [57] of the same molecule?
Answer: Its TGI is 22.6 µM.

Question: What about the TGI [58] of the same molecule?
Answer: The TGI was 20.6 µM.

Question: What about the TGI [59] of the same molecule?
Answer: The TGI was 3.6 µM.

Question: With `COc1ccc(/C=C2/C(=O)N(C(=O)c3ccc(Cl)cc3)N=C2C)cc1OC` as the molecule, how does the TGI [1] read?
Answer: Its TGI is greater than 100 µM.

Question: And the TGI [2]?
Answer: Its TGI is greater than 100 µM.

Question: What about the TGI [3] of the same molecule?
Answer: Its TGI is greater than 100 µM.

Question: And the TGI [4]?
Answer: The TGI was greater than 100 µM.

Question: And the TGI [6]?
Answer: The TGI was greater than 100 µM.

Question: What about the TGI [7] of the same molecule?
Answer: Its TGI is greater than 100 µM.

Question: What about the TGI [8] of the same molecule?
Answer: The TGI was greater than 100 µM.

Question: And the TGI [60]?
Answer: The TGI was greater than 100 µM.

Question: What about the TGI [61] of the same molecule?
Answer: Its TGI is greater than 100 µM.

Question: What about the TGI [10] of the same molecule?
Answer: The TGI was greater than 100 µM.

Question: And the TGI [11]?
Answer: Its TGI is greater than 100 µM.

Question: And the TGI [12]?
Answer: Its TGI is greater than 100 µM.

Question: What about the TGI [13] of the same molecule?
Answer: The TGI was greater than 100 µM.

Question: And the TGI [14]?
Answer: The TGI was greater than 100 µM.

Question: What about the TGI [15] of the same molecule?
Answer: The TGI was greater than 100 µM.

Question: What about the TGI [16] of the same molecule?
Answer: Its TGI is greater than 100 µM.

Question: And the TGI [18]?
Answer: The TGI was greater than 100 µM.

Question: What about the TGI [19] of the same molecule?
Answer: Its TGI is greater than 100 µM.

Question: What about the TGI [20] of the same molecule?
Answer: The TGI was greater than 100 µM.

Question: What about the TGI [21] of the same molecule?
Answer: The TGI was greater than 100 µM.

Question: And the TGI [62]?
Answer: Its TGI is greater than 100 µM.

Question: And the TGI [22]?
Answer: Its TGI is greater than 100 µM.

Question: What about the TGI [63] of the same molecule?
Answer: Its TGI is greater than 100 µM.

Question: And the TGI [23]?
Answer: Its TGI is greater than 100 µM.

Question: And the TGI [64]?
Answer: The TGI was greater than 100 µM.

Question: And the TGI [24]?
Answer: Its TGI is greater than 100 µM.

Question: What about the TGI [31] of the same molecule?
Answer: The TGI was greater than 100 µM.

Question: What about the TGI [32] of the same molecule?
Answer: The TGI was greater than 100 µM.

Question: What about the TGI [33] of the same molecule?
Answer: Its TGI is greater than 100 µM.

Question: And the TGI [35]?
Answer: Its TGI is greater than 100 µM.

Question: What about the TGI [36] of the same molecule?
Answer: Its TGI is greater than 100 µM.

Question: What about the TGI [37] of the same molecule?
Answer: Its TGI is greater than 100 µM.

Question: What about the TGI [38] of the same molecule?
Answer: Its TGI is greater than 100 µM.

Question: And the TGI [40]?
Answer: The TGI was greater than 100 µM.

Question: And the TGI [42]?
Answer: The TGI was greater than 100 µM.

Question: What about the TGI [43] of the same molecule?
Answer: Its TGI is greater than 100 µM.

Question: And the TGI [44]?
Answer: Its TGI is greater than 100 µM.

Question: What about the TGI [45] of the same molecule?
Answer: Its TGI is greater than 100 µM.

Question: And the TGI [46]?
Answer: The TGI was greater than 100 µM.

Question: And the TGI [47]?
Answer: Its TGI is greater than 100 µM.

Question: What about the TGI [48] of the same molecule?
Answer: The TGI was greater than 100 µM.

Question: And the TGI [49]?
Answer: Its TGI is greater than 100 µM.

Question: And the TGI [50]?
Answer: Its TGI is greater than 100 µM.

Question: What about the TGI [65] of the same molecule?
Answer: The TGI was greater than 100 µM.

Question: And the TGI [53]?
Answer: Its TGI is greater than 100 µM.

Question: What about the TGI [55] of the same molecule?
Answer: The TGI was greater than 100 µM.

Question: And the TGI [56]?
Answer: The TGI was greater than 100 µM.

Question: And the TGI [57]?
Answer: Its TGI is greater than 100 µM.

Question: What about the TGI [58] of the same molecule?
Answer: Its TGI is greater than 100 µM.

Question: What about the TGI [59] of the same molecule?
Answer: The TGI was greater than 100 µM.

Question: And the TGI [66]?
Answer: The TGI was greater than 100 µM.
